In PubChem BioAssay (NCI):
Several values for one entry are separate records, joined by “and”; a condition that tells them apart may be missing. Identical values can stand only once.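 48-hour exposure; five concentrations; linearly interpolated endpoints. GI50 is the concentration that inhibits growth by half. The concentration for full growth arrest is given as TGI.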

Each compound was assayed on MDA-MB-468 breast (assay: NCI tumour cell line growth inhibition, 48 h).

`N#CC(=C1C=CC(=NO)C=C1)c1ccccc1` was tested. Which GI50 did it give?
Its GI50 is 0.289 µM.

What about the TGI of the same compound?
Its TGI is 2.86 µM.

How did the GI50 turn out when `N#Cc1c(NN)n(C2OC(CO)C(O)C2O)c2ncnc(N)c12` (configuration not stated) was run?
The GI50 was 0.0105 µM.

And the TGI?
The TGI was 0.0594 µM.

How did the GI50 turn out when `COc1ccc(CCOc2cc3c(cc2OC)CCN(C(=O)NCc2cocn2)C3c2ccc(C)cc2C)cc1` (configuration not stated) was run?
Its GI50 is 0.289 µM.

And the TGI?
Its TGI is 1.3 µM.

`CCN(CC)CCCC(CNc1ccnc2cc(Cl)ccc12)c1ccc(Cl)cc1` (configuration not stated) was tested. Which GI50 did it give?
The GI50 was 0.992 µM and 0.419 µM.

And the TGI?
The TGI was 2.55 µM and 1.49 µM.

Which results are given for `CC(C)=CCNc1ncnc2c1ncn2C1OC(CO)C(O)C1O` (configuration not stated)?
GI50: 0.37 µM; TGI: 1.78 µM

For `CCn1c(-c2nonc2N)nc2c(C#CC(C)(C)O)nc(OC[C@H](N)c3ccccc3)cc21`, which GI50 is on record?
The GI50 was 2.95 µM.

What about the TGI of the same compound?
The TGI was 6.73 µM.

With `COc1ccc(CN2C(=O)/C(=C\C(=O)c3ccc(OCCN4CCCCC4)cc3)c3ccccc32)cc1` as the compound, how does the GI50 read?
The GI50 was 1.7 µM.

What about the TGI of the same compound?
The TGI was 3.68 µM.

How did the GI50 turn out when `O=C(CNc1ccc(Cl)cc1)Nc1ccc(-c2nc3ccccc3s2)cc1` was run?
The GI50 was 0.0375 µM.

And the TGI?
The TGI was 0.386 µM.

What does the source list for `O=C(Cc1ccc(/C=C/C(=O)c2ncc[nH]2)cc1)Nc1cc(F)c(F)c(F)c1`?
GI50: 1.11 µM; TGI: 4.53 µM

`[Cl][Hg][c]1cc(Br)cc(Br)c1` was tested. Which GI50 did it give?
Its GI50 is 1.37 µM.

What about the TGI of the same compound?
The TGI was 3.02 µM.

Which results are given for `CCN(CC)CCOc1ccc(-c2nc3cc(Cl)ccc3s2)cc1`?
GI50: 1.16 µM; TGI: 2.46 µM

`O=C(Nc1nc2ccc(C(F)(F)F)cc2s1)c1cc(Cl)ccc1O` was tested. Which GI50 did it give?
Its GI50 is 1.4 µM.

What about the TGI of the same compound?
The TGI was 13.7 µM.

What does the source list for `CCCCCCNC(=O)c1cc(NCc2cc(O)ccc2O)ccc1O`?
GI50: 6.53 µM; TGI: 28.9 µM

With `COc1ccc(C(C)=O)cc1N1C(=O)C2C(C1=O)C1(c3ccccc3)C(=O)C2(c2ccccc2)C(c2ccc(C)cc2)=C1c1ccc(C)cc1` (configuration not stated) as the compound, how does the GI50 read?
Its GI50 is > 100 µM.

What about the TGI of the same compound?
The TGI was > 100 µM.

What does the source list for `COc1cc(C2CC(c3cccc(Br)c3)=NN2C(C)=O)cc(OC)c1OC` (configuration not stated)?
GI50: 0.215 µM; TGI: > 100 µM

`Cc1nc2c(-c3cnc(N)nc3)nc(N3CCOCC3)nc2n1C(C)C` was tested. Which GI50 did it give?
Its GI50 is 0.105 µM and 0.0734 µM.

What about the TGI of the same compound?
The TGI was 0.647 µM and 0.398 µM.

Which GI50 does the source give for `C=COCCCOc1ccccc1` here?
Its GI50 is > 100 µM.

And the TGI?
The TGI was > 100 µM.

How did the GI50 turn out when `CCCCCCCCCCCCCC1=NC(C)(C)CN1C(C)C` was run?
The GI50 was 1.52 µM.

And the TGI?
The TGI was 2.94 µM.

For `CCC(C)n1ncn(-c2ccc(N3CCN(c4ccc(OCC5COC(Cn6cncn6)(c6ccc(Cl)cc6Cl)O5)cc4)CC3)cc2)c1=O` (configuration not stated), which GI50 is on record?
Its GI50 is 7.07 µM.

What about the TGI of the same compound?
The TGI was > 100 µM.

With `Cc1ccc(C)c(C2=C(c3cn(C)c4ccccc34)C(=O)NC2=O)c1` as the compound, how does the GI50 read?
Its GI50 is 24.3 µM.

What about the TGI of the same compound?
The TGI was > 25 µM.

With `CCN(CC)CCC(CNc1ccnc2cc(Cl)ccc12)c1ccc(OC)cc1` (configuration not stated) as the compound, how does the GI50 read?
Its GI50 is 1.99 µM.

What about the TGI of the same compound?
Its TGI is 4.77 µM and 5.3 µM.

Which results are given for `COc1ccc(/C=C(/C(=O)N2CCN(c3ccccc3)CC2)c2cc(OC)c(OC)c(OC)c2)cc1O`?
GI50: 0.575 µM; TGI: > 100 µM

Which GI50 does the source give for `CS(=O)c1nccc(-c2c(-c3ccc(F)c(OCc4ccc(F)cc4)c3)nc3sccn23)n1` (configuration not stated) here?
The GI50 was 1.95 µM.

What about the TGI of the same compound?
The TGI was 4.33 µM.

Which GI50 does the source give for `O=C1/C(=C/c2ccc(Br)cc2)COc2ccc(O)c(O)c21` here?
Its GI50 is 1.37 µM.

What about the TGI of the same compound?
Its TGI is 3.2 µM.

How did the GI50 turn out when `CN1CCN(CCOc2ccc(-c3cnc4c(-c5ccccc5F)cnn4c3)cc2)CC1` was run?
The GI50 was 1.65 µM.

What about the TGI of the same compound?
Its TGI is 3.36 µM.

For `O=C(Nc1ccc(Cl)cc1F)c1ccccc1O`, which GI50 is on record?
The GI50 was 2.31 µM.

What about the TGI of the same compound?
The TGI was 6.42 µM.

What does the source list for `CCN1CCN(C(c2ccc(C(F)(F)F)cc2)c2ccc3cccnc3c2O)CC1` (configuration not stated)?
GI50: 2.48 µM; TGI: 6.48 µM

Which GI50 does the source give for `Cn1nc(N)c2cc([C@@H]3Nc4ccc5[nH]ncc5c4[C@H]4C5CCC(C5)[C@@H]34)ccc21` (some centres not stated) here?
Its GI50 is 0.235 µM.

And the TGI?
Its TGI is 3.34 µM.

For `O=C1NC(=O)C(c2cnc3ccccn23)=C1c1cn2c3c(cc(F)cc13)CN(C(=O)N1CCCCC1)CC2`, which GI50 is on record?
The GI50 was 4.47 µM.

What about the TGI of the same compound?
Its TGI is 29.9 µM.

`Clc1nc2ccccc2nc1CI` was tested. Which GI50 did it give?
The GI50 was 2.99 µM.

What about the TGI of the same compound?
Its TGI is 8.67 µM.

How did the GI50 turn out when `CCN(CC)c1ccc2c(c1)OC(N)=C(C#N)C2c1cc(OC)c2c(c1)OCO2` (configuration not stated) was run?
Its GI50 is 0.0328 µM.

And the TGI?
Its TGI is 2.97 µM.

Which results are given for `C=C1CC[C@@H]2[C@](C)(COC(C)=O)[C@H](OC(C)=O)CC[C@@]2(C)[C@@H]1CC(Sc1ccccc1)C1=CCOC1=O` (some centres not stated)?
GI50: 1.41 µM; TGI: 3.26 µM

Which GI50 does the source give for `Cn1c2ccccc2c2c3c(c4c5cc(Br)ccc5n(C)c4c21)C(=O)N(O)C3=O` here?
Its GI50 is 0.213 µM.

What about the TGI of the same compound?
The TGI was 0.51 µM.

For `CC(C)CCN1c2nc(Nc3cc(F)c(O)c(F)c3)ncc2N(C)C(=O)C1C` (configuration not stated), which GI50 is on record?
Its GI50 is 5.02 µM.

And the TGI?
Its TGI is 23.9 µM.

For `CC(C)=CC/C=C(/C)[C@H]1CC[C@]2(C)[C@@H]1CC[C@@H]1[C@@]3(C)CCCNC(C)(C)[C@@H]3CC[C@]12C`, which GI50 is on record?
The GI50 was 1.71 µM.

And the TGI?
Its TGI is 3.25 µM.

Which results are given for `NC(=O)c1c(NC(=O)c2ccc(C3CCCCC3)cc2)sc2c1CCC(=O)C2`?
GI50: 0.297 µM; TGI: 1.43 µM
